These results are taken from patent US4490527A, “Benzo-fused heterocyclic anti-ulcer agents” (American Home Products Corporation, priority 1983, dated 1984).

Where a name gives a salt, the structure may show the parent alone.

The target in the first experiment is H2 histamine receptors (Cavia porcellus, UniProt P47747). Kind of experiment: cell-based. More on the design: species or system guinea pig. Particulars: vs histamine dose-response; 30 min after addition; 32° C., pH 7.4; results of three experiments.
Sequence of H2 histamine receptors (P47747 whole entry): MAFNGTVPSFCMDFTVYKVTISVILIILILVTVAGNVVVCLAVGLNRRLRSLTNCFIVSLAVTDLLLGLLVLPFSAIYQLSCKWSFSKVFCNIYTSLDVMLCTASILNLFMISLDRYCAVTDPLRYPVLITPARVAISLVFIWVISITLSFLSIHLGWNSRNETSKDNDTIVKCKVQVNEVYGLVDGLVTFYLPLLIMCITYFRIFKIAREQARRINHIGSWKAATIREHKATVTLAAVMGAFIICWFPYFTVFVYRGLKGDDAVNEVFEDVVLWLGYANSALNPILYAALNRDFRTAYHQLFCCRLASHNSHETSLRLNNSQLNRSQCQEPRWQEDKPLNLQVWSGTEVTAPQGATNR
Protocol: The guinea pig heart atrium test is carried out as follows:
A guinea pig right atrium is suspended at 1 g. tension (isometric) in a thermostatically controlled (32° C.) tissue bath (10 ml) containing oxygenated (95% O2 ; 5% CO2) Krebs-Haenseleit buffer (pH 7.4). The tissue is allowed to stabilize over 1 hour. Individual contractions are recorded with a force-displacement transducer through a strain gauge coupler. A control dose-response curve to histamine in the above described tissue bath is obtained after which the tissue is washed 3 times and allowed to re-equilibrate to basal rate. The test compound is added to the tissue bath at the desired final concentration. Thirty minutes after addition of the compound, a fresh histamine dose response curve is again obtained. Then the response to histamine in the presence of antagonist is compared to the histamine control response. This procedure is repeated, using fresh tissues, for each concentration of antagonist tested. […] Cimetidine is used as the standard for this test.
On to `O=S1(=O)N=C(NCCCOc2cccc(CN3CCCCC3)c2)c2cc(Cl)c(Cl)cc21` [Example 9, N-[3-[3-[(1-piperidinyl)methyl]phenoxy]propyl]-5,6-dichloro-1,2-benzisothiazol-3-amine 1,1-dioxide, monohydrochloride salt], for which the “pA2 Value (apparent dissociation constant of the H2 antagonist)” value was determined as 6.7. The same measure, in the same setting: in the case of `COc1ccc2c(c1)C(NCCCOc1cccc(CN3CCCCC3)c1)=NS2(=O)=O` [Example 12, N-[3-[3-[(1-piperidinyl)methyl]phenoxy]propyl]-5-methoxy-1,2-benzisothiazol-3-amine 1,1-dioxide, 2/3 oxalate, ethanolate] it was 8.0.

The same experiment, now with this note: vs histamine dose-response; 30 min after addition; 32° C., pH 7.4; results of three experiments; read-out: pA2 Value (apparent dissociation constant of the H2 antagonist) (converted).
`O=S1(=O)N=C(NCCCOc2cccc(CN3CCCCC3)c2)c2ccccc21` [Example 2, N-[3-[3-[(1-piperidinyl)methyl]phenoxy]propyl]-1,2-benzisothiazol-3-amine 1,1-dioxide]: the Kb is 7.94 nM. On the same count and under the same terms, to `NC(N)=Nc1nc(CSCCNC2=NS(=O)(=O)c3ccccc32)cs1` [Example 3, [4-[[[2-[(1,2-benzisothiazol-3yl)amino]ethyl]thio]methyl]-2-thiazolyl]guanidine S',S'-dioxide] belongs 2 nM. As for `O=C1N=C(NCCCOc2cccc(CN3CCCCC3)c2)c2ccccc21` [Example 4, 3-[[3-[3-[(1-piperidinyl)methyl]phenoxy]propyl]amino]-1H isoindol-1-one, dihydrochloride, quarter hydrate], the Kb was 251 nM. As to `O=[N+]([O-])c1ccc2c(c1)S(=O)(=O)N=C2NCCCOc1cccc(CN2CCCCC2)c1` [Example 5, N-[3-[3-[(1-piperidinyl)methyl]phenoxy]propyl]-6-nitro-1,2-benzisothiazol-3-amine 1,1-dioxide, hydrochloride], the Kb is 50.1 nM. Same read-out and setting: in the case of `Nc1ccc2c(c1)S(=O)(=O)N=C2NCCCOc1cccc(CN2CCCCC2)c1` [Example 6, N-[3-[3-[(1-piperidinyl)methyl]phenoxy]propyl]-6-amino-1,2-benzisothiazol-3-amine 1,1-dioxide] it was 20 nM; in that of `O=S1(=O)N=C(NCCCOc2cccc(CN3CCCCC3)c2)c2ccc(Cl)cc21` [Example 7, N-[3-[3-[(1-piperidinyl)methyl]phenoxy]propyl]-6-chloro-1,2-benzisothiazol-3-amine 1,1-dioxide, hydrochloride salt hemihydrate], 31.6 nM.

`O=S1(=O)N=C(NCCCOc2cccc(CN3CCCCC3)c2)c2ccc(F)cc21` [Example 8, N-[3-[3-[(1-piperidinyl)methyl]phenoxy]propyl]-6-fluoro-1,2-benzisothiazol-3-amine 1,1-dioxide]: the Kb was 20 nM. On the same count and under the same terms, to `Cc1ccc2c(c1)C(NCCCOc1cccc(CN3CCCCC3)c1)=NS2(=O)=O` [Example 10, N-[3-[3-[(1-piperidinyl)methyl]phenoxy]propyl]-5-methyl-1,2-benzisothiazol-3-amine 1,1-dioxide] belongs 50.1 nM. For `O=S1(=O)N=C(NCCCOc2cccc(CN3CCCCC3)c2)c2cc(Cl)ccc21` [Example 11, N-[3-[3-[(1-piperidinyl)methyl]phenoxy]propyl]-5-chloro-1,2-benzisothiazol-3-amine 1,1-dioxide, hydrochloride], the Kb was 79.4 nM. On the same count and under the same terms, in the case of `O=S1(=O)N=C(NCCCOc2cccc(CN3CCSCC3)c2)c2ccccc21` [Example 23, N-[3-[3-[(4-thiomorpholinyl)methyl]phenoxy]propyl]-1,2-benzisothiazol-3-amine 1,1-dioxide, hydrochloride] it was 25.1 nM; in that of `O=S1(=O)N=C(NCCCOc2cccc(CN3CCCCCCC3)c2)c2ccccc21` [Example 26, N-[3-[3-[(octahydro-1(2H)-azocinyl)methyl]phenoxy]-propyl]-1,2-benzisothiazol-3-amine 1,1-dioxide, hydrochloride], 20 nM; in that of `O=S1(=O)N=C(NCCCOc2cccc(CNC3CCCCC3)c2)c2ccccc21` [Example 27, N-[3-[3-[(cyclohexylamino)methyl]phenoxy]propyl]-1,2-benzisothiazol-3-amine 1,1-dioxide, hydrochloride], 44.7 nM.
